± gives the expanded uncertainty stated by the source.

For this data set the following is noted: 101 kPa, Liquid; for viscosity: Capillary tube (Ostwald / Ubbelohde) method; for mass density: Pycnometric method.

By viscosity is commonly meant the resistance of a fluid to flow. The term mass density denotes mass per unit of volume. As to `C1CCCCC1` [cyclohexane], the viscosity reads like this: (288.15 K) 1.077 ± 0.011 mPa·s; (293.15 K) 0.984 ± 0.01 mPa·s; (298.15 K) 0.903 ± 0.01 mPa·s; (303.15 K) 0.83 ± 0.009 mPa·s; (308.15 K) 0.764 ± 0.009 mPa·s. Also, the mass density amounted to 783.3 ± 0.3 kg/m3 (288.15 K); 778.6 ± 0.3 kg/m3 (293.15 K); 773.9 ± 0.3 kg/m3 (298.15 K); 769.2 ± 0.3 kg/m3 (303.15 K); 764.5 ± 0.4 kg/m3 (308.15 K).

`CCCCCCC` [heptane]: the viscosity reads like this: (288.15 K) 0.441 ± 0.007 mPa·s; (293.15 K) 0.417 ± 0.007 mPa·s; (298.15 K) 0.396 ± 0.007 mPa·s; (303.15 K) 0.375 ± 0.007 mPa·s; (308.15 K) 0.356 ± 0.007 mPa·s. Besides, the mass density (288.15 K) came to 688.1 ± 0.3 kg/m3; the mass density (293.15 K) is listed as 683.8 ± 0.3 kg/m3; the mass density (298.15 K) amounted to 679.7 ± 0.3 kg/m3; the mass density (303.15 K) was found to be 675.4 ± 0.3 kg/m3; the mass density (308.15 K) was found to be 671.1 ± 0.3 kg/m3.

The values above are taken from the NIST ThermoML archive (doi:10.1021/je8003707).
